Measured values taken from paper PMC8876231, “Analogues of Natural Chalcones as Efficient Inhibitors of AKR1C3” (Metabolites, 2022).
“And” between values parts separate entries of the source, which are not always exact repeats. Equal entries are not always repeated.

Tests used:
AKR1C1 = biological target: T1, AKR1C1 (Homo sapiens, UniProt Q04828); test: AKR1C1 inhibition assay (progesterone to 20α-hydroxyprogesterone); type: biochemical; conditions: 10 µM compound; mean ± SD
T1 construct: Myc (N); expressed in transfected cells; host or cells: HEK293
T1 sequence (Q04828 1-323): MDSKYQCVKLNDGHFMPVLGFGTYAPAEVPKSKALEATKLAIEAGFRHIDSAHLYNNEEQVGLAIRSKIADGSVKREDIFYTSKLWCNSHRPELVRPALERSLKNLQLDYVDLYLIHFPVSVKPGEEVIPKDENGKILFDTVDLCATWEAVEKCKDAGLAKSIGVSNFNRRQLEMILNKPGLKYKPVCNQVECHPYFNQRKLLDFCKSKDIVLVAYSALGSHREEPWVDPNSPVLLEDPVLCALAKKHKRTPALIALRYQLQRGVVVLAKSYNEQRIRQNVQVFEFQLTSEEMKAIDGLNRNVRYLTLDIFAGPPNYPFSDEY
Excerpt: (§1) For enzymatic assays and inhibitor testing, all enzymes were cloned into bacterial or mammalian expression vectors. AKR1C3 and the human hydroxysteroid dehydrogenases HSD17B1, HSD17B2, HSD17B4 (SDR domain), HSD17B7, and HSD17B10 were cloned into a pGEX vector as described in [71, 72]. The coding sequences for AKR1C1, AKR1C2, and AKR1C4 were cloned by Gateway technology into the pcDNA3-N-MycDest vector according to the manufacturer’s instructions (Life Technologies, Carlsbad, CA, USA). The p11 plasmid coding for HSD17B14 (S205 variant) was a gift from Udo Opperman SGC Oxford, UK. For assays with HSD17B3, HEK293 cells stably expressing HSD17B3 were used. Enzymes were expressed in E. coli BL21 DE3 or E. coli BL21 DE3 Codon Plus RP (Stratagene, San Diego, CA, USA) or in HEK293 cells as described in [71, 72, 73]. Bacterial and cell pellets were stored at −20 °C and −80 °C, respectively, until use.
(§2) Inhibition assays were carried out as described in [71, 74]. […] For a detailed assay setup, see Supplementary Table S6. The incubation at 37 °C was stopped with 0.21 M ascorbic acid in methanol:acetic acid 99:1 (v:v) after the time needed to convert approximately 30% of the substrate in a control assay with 1% DMSO, without inhibitor candidate. Substrates and products were extracted from the reaction mixture by solid-phase extraction using C18 cartridges (Phenomenex, Aschaffenburg, Germany) and separated by RP–HPLC in a Beckman–Coulter HPLC Gold system, using the Luna 5 µm C18(2), 125 × 4.0 mm column (Phenomenex). The mobile phases used were H2O:ACN (57:43 (v:v); for assays of estrone (E1) to oestradiol (E2), E2 to E1, and ∆4-androstene-3,17-dione to testosterone conversion), H2O:ACN (49:51 (v:v); for assays of progesterone to 20α-hydroxyprogesterone conversion), and H2O:MeOH (35:65 (v:v) for assays of dihydrotestosterone (DHT) to 3α-androstanediol conversion) at a flow rate of 1 mL/min. Radioactivity was detected by online scintillation counting by using a radioactivity monitor (LB506D, Berthold Technologies, Bad Wildbad, Germany). Conversion of substrates to products was determined by integration of the peak area of the substrate and product peaks in percent. For calculation of inhibition, the conversion of control assay (assay without inhibitor) was set to 0% inhibition. All assays were run in triplicates, and mean values ± SD are reported.
(§3) Table S6: Activity assay setup […]
(§4) E1: estrone; E2: 17β-estradiol, A: Δ4-androstene-3,17-dione; T: testosterone, P: progesterone, 20αOHP: 20α-hydroxyprogesterone, DHT: dihydrotestosterone, 3α-Adiol: 3α-androstanediol, NaPi: 100 mM Na-phosphate buffer; PI: C0mplete protease inhibitor (Roche);. E.coli - Expression in E.coli BL21 DE3 Codon Plus RP except E.coli BL21 DE3 […]
(§5) application to antiparasitic and natural product synthesis. Eur J Org Chem […]
(§6) Synthesis of Xanthohumol analogues and discovery of potent thioredoxin reductase inhibitor as potential anticancer agent. J Med Chem 2015, 58,

HSD17B1 = biological target: T2, HSD17B1 (Homo sapiens, UniProt P14061); test: HSD17B1 inhibition assay (estrone to oestradiol); type: biochemical; conditions: 10 µM compound; mean ± SD
T2 construct: GST (own knowledge: pGEX vectors encode N-terminal GST); made in house; host or cells: E. coli BL21 DE3 Codon Plus RP
T2 sequence (P14061 1-328): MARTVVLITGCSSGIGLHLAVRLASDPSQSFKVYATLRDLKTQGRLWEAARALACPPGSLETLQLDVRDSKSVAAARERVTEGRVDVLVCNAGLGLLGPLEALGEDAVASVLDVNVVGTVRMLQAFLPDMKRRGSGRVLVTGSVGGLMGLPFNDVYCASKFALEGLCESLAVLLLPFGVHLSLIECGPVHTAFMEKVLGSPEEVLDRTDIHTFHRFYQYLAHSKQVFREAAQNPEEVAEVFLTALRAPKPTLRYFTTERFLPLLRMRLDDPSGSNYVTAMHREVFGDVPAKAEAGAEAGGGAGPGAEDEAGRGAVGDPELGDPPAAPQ
Excerpt: as §1, §2, §3, §4, §5, §6

HSD17B3 = biological target: T3, HSD17B3 (Homo sapiens, UniProt P37058); test: HSD17B3 inhibition assay (∆4-androstene-3,17-dione to testosterone, HEK293 stably expressing HSD17B3); type: biochemical; conditions: 10 µM compound; mean ± SD
T3 construct: expressed in transfected cells
T3 sequence (P37058 1-310): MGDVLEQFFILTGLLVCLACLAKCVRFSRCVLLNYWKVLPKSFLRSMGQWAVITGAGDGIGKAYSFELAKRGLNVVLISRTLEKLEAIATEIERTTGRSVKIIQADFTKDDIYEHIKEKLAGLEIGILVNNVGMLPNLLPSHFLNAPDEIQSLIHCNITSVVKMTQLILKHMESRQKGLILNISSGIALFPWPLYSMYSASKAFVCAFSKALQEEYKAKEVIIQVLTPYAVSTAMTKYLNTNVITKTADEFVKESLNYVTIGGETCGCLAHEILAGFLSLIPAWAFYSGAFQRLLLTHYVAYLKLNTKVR
Excerpt: as §1, §2, §3, §4, §5, §6

HEK293T cells = test: Cell Titer Blue cell viability (cytotoxicity) assay; conditions: 72 h, 1 µM to 100 µM tested
Experimental: For the cultivation of HEK293T cells, Dulbecco’s modified Eagle medium (DMEM, Pan Biotech GmbH, Aidenbach, Germany) supplemented with 10% FCS (Pan Biotech GmbH), 100 U/mL penicillin, and 100 µg/mL streptomycin (Pan Biotech GmbH) was used. The cells were cultured at 37 °C and 5% CO2 in constant humidity. Before cell seeding, culture flasks and multiwell plates were coated with collagen G (0.001% in PBS, Merck, Darmstadt, Germany).
For studying the cytotoxicity of the different chalcones and the positive control compounds cisplatin and etoposide on HEK293T cells, the Cell Titer® Blue (CTB) Cell Viability Assay was used (Promega, Mannheim, Germany). A total of 10,000 cells in a 200 µL culture medium were seeded into each well of a 96-well plate. Then, 24 h after seeding, the cells were treated with 0, 1, 2.5, 5, 7.5, 10, 15, 25, 50, or 100 µM of the different compounds (3 wells per compound and concentration) and incubated for an additional 72 h. For measurement of cell viability, 20 µL of CTB reagent were added to each well, and after 5 h at 37 °C, the metabolic activity was quantified by recording the fluorescence signal (λEx 560 nm, λEm 590 nm) on a Spark plate reader (Tecan Trading GmbH, Männedorf, Switzerland). […] Statistical significances were calculated by one-way ANOVA (Dunnett’s multiple comparison test), * p < 0.05, ** p < 0.005, *** p < 0.0002, **** p < 0.0001.

| Structure (SMILES) | Inhibition of AKR1C1 at 10 µM in % (AKR1C1) | Inhibition of HSD17B1 at 10 µM in % (HSD17B1) [%] | Inhibition of HSD17B3 at 10 µM in % (HSD17B3) [%] | inhibition at 10 µM (AKR1C1) [%] | inhibition at 10 µM (HSD17B1) [%] | inhibition at 10 µM (HSD17B3) [%] | Compound concentration at which HEK293T viability was significantly decreased (HEK293T cells) [µM] |
| --- | --- | --- | --- | --- | --- | --- | --- |
| COc1ccc(/C=C/C(=O)c2c(O)cc(O)cc2OC)cc1 [Compound 18] | 96.5% | 46.5 ± 8.8 | 24.8 ± 4.8 | – | – | – | – |
| COc1cc(O)cc(O)c1C(=O)/C=C/c1ccc(Cl)cc1Cl [Compound 25] | 87.9% | – | 20.9 ± 8.0 | – | – | – | 7.5 |

Continued, in another order:

| Inhibition of AKR1C1 at 10 µM in % (AKR1C1) | Inhibition of HSD17B1 at 10 µM in % (HSD17B1) [%] | Inhibition of HSD17B3 at 10 µM in % (HSD17B3) [%] | inhibition at 10 µM (AKR1C1) [%] | inhibition at 10 µM (HSD17B1) [%] | inhibition at 10 µM (HSD17B3) [%] | Structure (SMILES) | Compound concentration at which HEK293T viability was significantly decreased (HEK293T cells) [µM] |
| --- | --- | --- | --- | --- | --- | --- | --- |
| > 75% | 42.3 ± 5.3 | 41.8 ± 3.3 | – | – | – | COc1ccc(/C=C/C(=O)c2c(O)cc(O)cc2O)cc1 [Compound 19] | – |
| 86.9 ± 1.1% and > 75% | 51.8 ± 5.1 | 55.9 ± 4.1 | – | – | – | Cc1cccc(/C=C/C(=O)c2c(O)cc(O)cc2O)c1 [Compound 20] | – |
| 90.2 ± 0.8% and > 75% | 42.8 ± 9.1 | 52.7 ± 6.7 | – | – | – | Cc1ccc(/C=C/C(=O)c2c(O)cc(O)cc2O)cc1 [Compound 21] | – |
| – | – | – | 97 ± 0.5 | 53.3 | 68.6 | O=C(/C=C/c1ccc(Cl)cc1Cl)c1c(O)cc(O)cc1O [Compound 23, 2,4-dichloro-2′,4′,6′-trihydroxychalcone] | ≥ 50 |
